# Test results as given in PubChem BioAssay (NCI).
#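 Results reflect a 48-hour exposure of cells in 96-well plates to compound at five concentrations. TGI is the concentration that stops growth completely.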
# Key:
# Experiment in all cases: growth of human tumour cells (NCI), 48 h
# [1] = tested on: 786-0 renal
# [2] = tested on: A498 renal
# [3] = tested on: A549 NSCLC
# [4] = tested on: ACHN renal
# [5] = tested on: CAKI-1 renal
# [6] = tested on: CCRF-CEM leukemia
# [7] = tested on: COLO 205 colon
# [8] = tested on: DLD-1 colon
# [9] = tested on: DMS 114 small cell lung
# [10] = tested on: DMS 273 small cell lung
# [11] = tested on: HCT-116 colon
# [12] = tested on: HCT-15 colon
# [13] = tested on: HL-60(TB) leukemia
# [14] = tested on: HOP-18 NSCLC
# [15] = tested on: HOP-62 NSCLC
# [16] = tested on: HOP-92 NSCLC
# [17] = tested on: HT29 colon
# [18] = tested on: IGROV1 ovarian
# [19] = tested on: K-562 leukemia
# [20] = tested on: KM12 colon
# [21] = tested on: KM20L2 colon
# [22] = tested on: LOX IMVI melanoma
# [23] = tested on: LXFL 529 NSCLC
# [24] = tested on: M14 melanoma
# [25] = tested on: M19-MEL melanoma
# [26] = tested on: MALME-3M melanoma
# [27] = tested on: MOLT-4 leukemia
# [28] = tested on: NCI-H226 lung
# [29] = tested on: NCI-H23 lung
# [30] = tested on: NCI-H460 lung
# [31] = tested on: NCI-H522 lung
# [32] = tested on: OVCAR-3 ovarian
# [33] = tested on: OVCAR-4 ovarian
# [34] = tested on: OVCAR-8 ovarian
# [35] = tested on: RPMI-8226 leukemia
# [36] = tested on: RXF 393 renal
# [37] = tested on: RXF-631 renal
# [38] = tested on: SF-268 CNS
# [39] = tested on: SK-MEL-2 melanoma
# [40] = tested on: SK-MEL-28 melanoma
# [41] = tested on: SK-MEL-5 melanoma
# [42] = tested on: SK-OV-3 ovarian
# [43] = tested on: SN12C renal
# [44] = tested on: SNB-19 CNS
# [45] = tested on: SNB-75 CNS
# [46] = tested on: SW-620 colon
# [47] = tested on: TK-10 renal
# [48] = tested on: U251 CNS
# [49] = tested on: UACC-257 melanoma
# [50] = tested on: UACC-62 melanoma
# [51] = tested on: UO-31 renal
# [52] = tested on: XF 498 CNS
# [53] = tested on: EKVX NSCLC
# [54] = tested on: HCC-2998 colon
# [55] = tested on: OVCAR-5 ovarian
# [56] = tested on: SF-295 CNS
# [57] = tested on: SF-539 CNS
# [58] = tested on: SR leukemia
# [59] = tested on: SNB-78 CNS
smiles,measurement,setting,value
COc1cc2c(cc1OC)C(C(=O)c1cccc(OC)c1OC)C(=O)N(C)CC2 (centres undefined),TGI,[1],> 100 µM
same,TGI,[2],> 100 µM
same,TGI,[3],> 100 µM
same,TGI,[4],> 100 µM
same,TGI,[5],> 100 µM
same,TGI,[6],> 100 µM
same,TGI,[7],> 100 µM
same,TGI,[8],> 100 µM
same,TGI,[9],> 100 µM
same,TGI,[10],> 100 µM
same,TGI,[11],> 100 µM
same,TGI,[12],> 100 µM
same,TGI,[13],> 100 µM
same,TGI,[14],> 100 µM
same,TGI,[15],> 100 µM
same,TGI,[16],> 100 µM
same,TGI,[17],> 100 µM
same,TGI,[18],> 100 µM
same,TGI,[19],> 100 µM
same,TGI,[20],> 100 µM
same,TGI,[21],> 100 µM
same,TGI,[22],> 100 µM
same,TGI,[23],> 100 µM
same,TGI,[24],> 100 µM
same,TGI,[25],> 100 µM
same,TGI,[26],> 100 µM
same,TGI,[27],> 100 µM
same,TGI,[28],> 100 µM
same,TGI,[29],> 100 µM
same,TGI,[30],> 100 µM
same,TGI,[31],> 100 µM
same,TGI,[32],> 100 µM
same,TGI,[33],> 100 µM
same,TGI,[34],> 100 µM
same,TGI,[35],> 100 µM
same,TGI,[36],> 100 µM
same,TGI,[37],> 100 µM
same,TGI,[38],> 100 µM
same,TGI,[39],> 100 µM
same,TGI,[40],> 100 µM
same,TGI,[41],> 100 µM
same,TGI,[42],> 100 µM
same,TGI,[43],> 100 µM
same,TGI,[44],> 100 µM
same,TGI,[45],> 100 µM
same,TGI,[46],> 100 µM
same,TGI,[47],> 100 µM
same,TGI,[48],> 100 µM
same,TGI,[49],> 100 µM
same,TGI,[50],> 100 µM
same,TGI,[51],> 100 µM
same,TGI,[52],> 100 µM
COc1ccc2[nH]c3c(c2c1)[C@H](C)C[C@@H]1C(=O)N(c2ccccc2)C(=O)[C@H]31,TGI,[1],48.5 µM
same,TGI,[2],64.9 µM
same,TGI,[3],62.4 µM
same,TGI,[4],> 100 µM
same,TGI,[5],> 100 µM
same,TGI,[6],> 100 µM
same,TGI,[7],> 100 µM
same,TGI,[8],> 100 µM
same,TGI,[9],> 100 µM
same,TGI,[10],> 100 µM
same,TGI,[53],> 100 µM
same,TGI,[54],> 100 µM
same,TGI,[11],38.8 µM
same,TGI,[12],> 100 µM
same,TGI,[13],> 100 µM
same,TGI,[14],46.3 µM
same,TGI,[15],52.5 µM
same,TGI,[16],42.6 µM
same,TGI,[18],> 100 µM
same,TGI,[19],> 100 µM
same,TGI,[20],41.9 µM
same,TGI,[21],> 100 µM
same,TGI,[22],> 100 µM
same,TGI,[23],> 100 µM
same,TGI,[24],> 100 µM
same,TGI,[25],> 100 µM
same,TGI,[26],79.8 µM
same,TGI,[27],56.6 µM
same,TGI,[29],66.8 µM
same,TGI,[30],> 100 µM
same,TGI,[31],42.1 µM
same,TGI,[32],56.1 µM
same,TGI,[33],45.2 µM
same,TGI,[55],> 100 µM
same,TGI,[34],37.8 µM
same,TGI,[36],53.1 µM
same,TGI,[37],58.7 µM
same,TGI,[38],63.1 µM
same,TGI,[56],70.9 µM
same,TGI,[57],41 µM
same,TGI,[39],> 100 µM
same,TGI,[40],> 100 µM
same,TGI,[41],> 100 µM
same,TGI,[42],46 µM
same,TGI,[43],58.6 µM
same,TGI,[44],> 100 µM
same,TGI,[45],48.1 µM
same,TGI,[58],70.1 µM
same,TGI,[46],> 100 µM
same,TGI,[47],> 100 µM
same,TGI,[48],32.4 µM
same,TGI,[49],> 100 µM
same,TGI,[50],> 100 µM
same,TGI,[51],> 100 µM
same,TGI,[52],74.1 µM
CC(C)(Oc1ccc(/C=C/C(=O)c2ccc(Cl)cc2)cc1)C(=O)Nc1c(Cl)cccc1Cl,TGI,[1],45.8 µM
same,TGI,[2],32.4 µM
same,TGI,[3],> 100 µM
same,TGI,[4],53 µM
same,TGI,[5],48.9 µM
same,TGI,[7],40.2 µM
same,TGI,[8],29.2 µM
same,TGI,[9],33.7 µM
same,TGI,[53],> 100 µM
same,TGI,[54],51.5 µM
same,TGI,[11],18.5 µM
same,TGI,[12],29.3 µM
same,TGI,[14],> 100 µM
same,TGI,[15],> 100 µM
same,TGI,[16],91.5 µM
same,TGI,[17],28 µM
same,TGI,[18],76.3 µM
same,TGI,[19],> 100 µM
same,TGI,[20],25 µM
same,TGI,[21],46.1 µM
same,TGI,[22],31 µM
same,TGI,[23],53.9 µM
same,TGI,[24],36.7 µM
same,TGI,[25],27.1 µM
same,TGI,[26],40.4 µM
same,TGI,[27],96.5 µM
same,TGI,[28],51.5 µM
same,TGI,[29],40.9 µM
same,TGI,[30],98.3 µM
same,TGI,[32],44.8 µM
same,TGI,[33],> 100 µM
same,TGI,[55],> 100 µM
same,TGI,[34],30.5 µM
same,TGI,[36],36.9 µM
same,TGI,[37],45.3 µM
same,TGI,[38],90.2 µM
same,TGI,[56],49.6 µM
same,TGI,[57],28.1 µM
same,TGI,[39],> 100 µM
same,TGI,[40],30.3 µM
same,TGI,[41],37 µM
same,TGI,[42],> 100 µM
same,TGI,[43],34.8 µM
same,TGI,[44],> 100 µM
same,TGI,[45],97.5 µM
same,TGI,[58],> 100 µM
same,TGI,[46],27.8 µM
same,TGI,[47],> 100 µM
same,TGI,[48],26.7 µM
same,TGI,[49],99.6 µM
same,TGI,[50],38 µM
same,TGI,[51],54.2 µM
same,TGI,[52],37.7 µM
Cc1cn(C2CC(N(C)C)C(CO)O2)c(=O)[nH]c1=O (centres undefined),TGI,[1],> 100 µM
same,TGI,[2],> 100 µM
same,TGI,[4],> 100 µM
same,TGI,[5],> 100 µM
same,TGI,[6],> 100 µM
same,TGI,[7],> 100 µM
same,TGI,[8],> 100 µM
same,TGI,[9],> 100 µM
same,TGI,[10],> 100 µM
same,TGI,[54],> 100 µM
same,TGI,[11],> 100 µM
same,TGI,[13],> 100 µM
same,TGI,[15],> 100 µM
same,TGI,[16],> 100 µM
same,TGI,[18],> 100 µM
same,TGI,[19],> 100 µM
same,TGI,[23],> 100 µM
same,TGI,[24],> 100 µM
same,TGI,[25],> 100 µM
same,TGI,[26],> 100 µM
same,TGI,[27],> 100 µM
same,TGI,[28],> 100 µM
same,TGI,[29],> 100 µM
same,TGI,[31],> 100 µM
same,TGI,[33],> 100 µM
same,TGI,[35],> 100 µM
same,TGI,[37],> 100 µM
same,TGI,[38],> 100 µM
same,TGI,[57],> 100 µM
same,TGI,[39],> 100 µM
same,TGI,[40],> 100 µM
same,TGI,[42],> 100 µM
same,TGI,[43],> 100 µM
same,TGI,[45],> 100 µM
same,TGI,[59],> 100 µM
same,TGI,[58],> 100 µM
same,TGI,[50],> 100 µM
same,TGI,[51],> 100 µM
same,TGI,[52],> 100 µM
